These results are taken from patent publication US8546574B2, “Conglomerates of tenatoprazole potassium salts” (priority 2006, dated 2013).

Data set [1] can be described thus: Solubility of the racemic potassium salt solvated in methanol in methanolic potassium hydroxide solution. The class given is physicochemical. As to conditions: KOH excess about 0.2 molar equivalent.
The nature of data set [2]: Solubility of the racemic potassium salt solvated with ethanol in ethanolic potassium hydroxide solution. Conditions: KOH excess about 0.2 molar equivalent. The format is physicochemical.
Data set [3] can be described thus: Solubility of the racemic potassium salt solvated with ethylene glycol in ethanol/ethylene glycol mixture (80% V-20% V) with potassium hydroxide excess. The class given is physicochemical. Conditions: ethanol/ethylene glycol (80% V-20% V), KOH excess about 0.2 molar equivalent.
The conditions of data set [4]: compared with S-tenatoprazole itself and other proton-pump inhibitors; cited from earlier work.
For data set [5] the following is noted: cited from earlier work.
In data set [6] the test system is gastric lesions. As to conditions: compared with the other known proton-pump inhibitors; cited from earlier work.
Setting [7] is: relative to the other proton-pump inhibitors, for instance omeprazole or lansoprazole.

With `COc1ccc2nc([S+]([O-])Cc3ncc(C)c(OC)c3C)[n-]c2n1.[K+]` (racemic) [racemic mixture of the potassium salt solvated in methanol, potassium tenatoprazole dimethanolate], the “Solubility (mass %)” value stood at 4.4 mass % in data set [1] (30 ° C.); 5.2 mass % in data set [1] (38 ° C.); 6.5 mass % in data set [1] (40 ° C.); 7.7 mass % in data set [1] (42 ° C.); 12.2 mass % in data set [1] (56 ° C.).

For `COc1ccc2nc([S+]([O-])Cc3ncc(C)c(OC)c3C)[n-]c2n1.[K+]` (racemic) [racemic mixture of the potassium salt solvated with ethanol, potassium tenatoprazole diethanolate], the “Solubility (mass %)” value in data set [2] (33.9 ° C.) is on record as 4.24 mass %; in data set [2] (37 ° C.), 5.3 mass %.

With `COc1ccc2nc([S+]([O-])Cc3ncc(C)c(OC)c3C)[n-]c2n1.[K+]` (racemic) [racemic mixture of the potassium salt solvated with ethylene glycol, potassium tenatoprazole ethylene glycolate], the “Solubility (mass %)” value was 20.3 mass % in data set [3] (28 ° C.), 24 mass % in data set [3] (32 ° C.), 25.6 mass % in data set [3] (34.5 ° C.) and 33.5 mass % in data set [3] (39 ° C.).

With `COc1ccc2[nH]c([S+]([O-])Cc3ncc(C)c(OC)c3C)nc2n1.O.[Na]` (stereo not shown) [S-tenatoprazole sodium salt monohydrate], the solubility entry in data set [4] is listed as “excellent solubility”.

With `COc1ccc2[nH]c([S@@+]([O-])Cc3ncc(C)c(OC)c3C)nc2n1` [S-tenatoprazole], in data set [5] (compared with the racemic mixture and the enantiomer of R configuration), the pharmacokinetic properties result is listed as “significantly different”.

Take `COc1ccc2nc([S+]([O-])Cc3ncc(C)c(OC)c3C)[nH]c2n1` (stereo not shown) [tenatoprazole, 5-methoxy-2-[[(4-methoxy-3,5-dimethyl-2-pyridyl)methyl]sulfinyl]imidazo[4,5-b]pyridine]: in data set [5] (setting [7]), the duration of action result is reported as “markedly longer duration of action” and the plasmatic half-life entry was “about seven times greater”. Besides, the “level of relief of the symptoms and of cicatrization of gastric lesions” value in data set [6] is “greater level of relief of the symptoms and of cicatrization of gastric lesions”.
